US20110288154A1, “RNA Interference Mediated Inhibition of Epithelial Sodium Channel (ENaC) Gene Expression Using Short Interfering Nucleic Acid (siNA)” (MERCK & CO., INC., priority 2008, published 2011)

Test system: ENaC
Assay: FLIPR assay of sodium transport in recombinant HEK cells over expressing ENaC
Assay type: cell-based, human
Settings: recombinant HEK cells expressing ENaC
Method: Recombinant HEK293 cell line (expressing ENaC beta & gamma) SCNN1B (P618AY620L)+SCNN1G (P624stop) #24. were grown at 37 deg in the presence of CO2 and were cultured in M1 medium M1+0.5 mg/ml geneticin and 0.2 mg/ml hygromycin.
Functional Effects on ENaC via FLIPR in Cells Over Expressing ENaCa: A reverse transfection methodology was used to transfect the HEK recombinant cell line. 5 ul of siRNA (diluted in Optimem to the appropriate concentration) was mixed with 5 ul of the Gemini lipid transfection reagent diluted in Optimem in 384 well non-coated FLIPR plate. Plates were incubated at room temperature for 20 minutes to allow complex formation. Cells were harvested, spun down, diluted to 3×10^5/ml and plated out at 40 ul/well (12K/well) in 384 well plate format containing the transfection complex. The plates were incubated overnight for 20 hours. The cells were then transduced with BacMam virus expressing ENaC alpha (BacMam viruses expressing SCNN1A, GRITS 29703, titre 0.356×10^8/ml). 30 ul of virus was added (1.7%) 20K/well, MOI was approximately 1. Cells were incubated for 24 hours. On day of the FLIPR assay, media was aspirated, leaving 10 ul volume. 20 ul of dye per well was loaded (FMP2 Blue dye, R8181, MDS. For each pot, 133 ml Tyrodes buffer was diluted to make 1× stock prior to assay). The plate was incubated for 0.5 hours at room temperature and 10 ul of the compound added on-line prior to FLIPR read (FLIPR settings: protocol Na MP.fcf, with Exposure length 0.4 sec and Filter #2). Compound plate: 1 ul volume, column 1, 2 and 3 are 16, 4 and 0 uM amiloride final (1/200 dilution) (IC80, IC50 and ctrl).

N=C(N)NC(=O)c1nc(Cl)c(N)nc1N [Amiloride, reference compound]
IC50 (read-out: IC50 of inhibitor in FLIPR assay): 4 µM | IC80 (read-out: IC80 of inhibitor in FLIPR assay): 16 µM
